US9499553B2 (CHUGAI SEIYAKU KABUSHIKI KAISHA, priority 2013, dated 2016)

target: T1, human NaPi-IIb (Homo sapiens, UniProt O95436); test: Inhibitory effect on 33PO4 uptake into human NaPi-IIb-expressing CHO cells; assay type: cell-based; settings: read-out: IC50 against 33PO4 uptake into human NaPi-IIb-expressing cells
T1 construct: expressed in transfected cells
T1 sequence (O95436 1-690): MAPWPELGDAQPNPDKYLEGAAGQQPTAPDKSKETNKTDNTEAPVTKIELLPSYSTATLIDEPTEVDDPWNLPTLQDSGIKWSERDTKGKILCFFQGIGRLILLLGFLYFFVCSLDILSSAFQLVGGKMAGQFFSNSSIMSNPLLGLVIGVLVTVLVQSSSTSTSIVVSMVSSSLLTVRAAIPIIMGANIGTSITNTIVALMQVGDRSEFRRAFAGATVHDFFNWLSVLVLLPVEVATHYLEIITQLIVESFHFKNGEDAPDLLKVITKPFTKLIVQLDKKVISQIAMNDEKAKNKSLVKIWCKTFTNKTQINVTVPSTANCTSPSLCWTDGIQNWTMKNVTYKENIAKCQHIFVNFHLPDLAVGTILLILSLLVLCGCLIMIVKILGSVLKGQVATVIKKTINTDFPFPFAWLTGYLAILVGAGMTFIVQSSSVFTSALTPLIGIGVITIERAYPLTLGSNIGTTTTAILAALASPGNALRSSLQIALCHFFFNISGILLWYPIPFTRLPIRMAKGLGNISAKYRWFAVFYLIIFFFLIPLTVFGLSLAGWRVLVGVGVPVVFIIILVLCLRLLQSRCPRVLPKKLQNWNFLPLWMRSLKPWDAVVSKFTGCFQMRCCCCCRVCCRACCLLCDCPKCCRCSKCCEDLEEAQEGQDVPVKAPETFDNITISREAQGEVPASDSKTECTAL
Outline: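 Stable human NaPi-IIb CHO line (G418-selected), plated and cultured overnight; ³³PO4 added in buffer A and uptake run at room temperature. Cells washed with ice-cold buffer A, then uptake counted by liquid scintillation.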

SMILES	IC50
CN1N(Cc2ccc(OCCCOC[C@H](O)CO)c(F)c2F)C(=O)C(C(=O)Nc2ccc(C(F)(F)F)cc2-c2cc(C(F)(F)F)ncn2)=C(O)C12CCCC2 [Example 392]	15.8 µM
CN1N(Cc2ccc(OCCCOCCO)c(F)c2F)C(=O)C(C(=O)Nc2ccc(C(F)(F)F)cc2-c2cc(C(F)(F)F)ncn2)=C(O)C12CCCC2 [Example 395]	15.2 µM
CN1N(Cc2ccc(OCCCCOCCO)c(F)c2F)C(=O)C(C(=O)Nc2ccc(C(F)(F)F)cc2-c2cc(C(F)(F)F)ncn2)=C(O)C12CCCC2 [Example 396]	9.5 µM
CN1N(Cc2ccc(OCCCOCCCO)c(F)c2F)C(=O)C(C(=O)Nc2ccc(C(F)(F)F)cc2-c2cc(C(F)(F)F)ncn2)=C(O)C12CCCC2 [Example 398]	9.9 µM
CN1N(Cc2ccc(OCCCCCOCCCO)c(F)c2F)C(=O)C(C(=O)Nc2ccc(C(F)(F)F)cc2-c2cc(C(F)(F)F)ncn2)=C(O)C12CCCC2 [Example 400]	9.2 µM
COCCOCCOc1ccc(CN2C(=O)C(C(=O)Nc3ccc(C(F)(F)F)cc3-c3cc(C(F)(F)F)ncn3)=C(O)C3(CCC3)N2C)c(F)c1F [Example 401, 6-[[2,3-Difluoro-4-[2-(2-methoxyethoxy)ethoxy]phenyl]methyl]-9-hydroxy-5-methyl-7-oxo-N-[4-(trifluoromethyl)-2-[6-(trifluoromethyl)pyrimidin-4-yl]phenyl]-5,6-diazaspiro[3.5]non-8-ene-8-carboxamide]	14.5 µM
CN(CCOc1ccc(CN2C(=O)C(C(=O)Nc3ccc(C(F)(F)F)cc3-c3cc(C(F)(F)F)ncn3)=C(O)C3(CCC3)N2C)c(F)c1F)C1COC1 [Example 402, 6-(2,3-Difluoro-4-(2-(methyl(oxetan-3-yl)amino)ethoxy)benzyl)-9-hydroxy-5-methyl-7-oxo-N-(4-(trifluoromethyl)-2-(6-(trifluoromethyl)pyrimidin-4-yl)phenyl)-5,6-diazaspiro[3.5]non-8-ene-8-carboxamide]	12.8 µM
COCCN1CCC[C@H]1COc1ccc(CN2C(=O)C(C(=O)Nc3ccc(C(F)(F)F)cc3-c3cc(C(F)(F)F)ncn3)=C(O)C3(CCC3)N2C)c(F)c1F [Example 404, 6-[[2,3-Difluoro-4-[[(2S)-1-(2-methoxyethyl)pyrrolidin-2-yl]methoxy]phenyl]methyl]-9-hydroxy-5-methyl-7-oxo-N-[4-(trifluoromethyl)-2-[6-(trifluoromethyl)pyrimidin-4-yl]phenyl]-5,6-diazaspiro[3.5]non-8-ene-8-carboxamide]	10.1 µM

Stronger by IC50, values ahead:

IC50	SMILES
8.6 µM	CN1N(Cc2ccc(OCCCCCOCCO)c(F)c2F)C(=O)C(C(=O)Nc2ccc(C(F)(F)F)cc2-c2cc(C(F)(F)F)ncn2)=C(O)C12CCCC2 [Example 397]
8.1 µM	CN1N(Cc2ccc(OCCCCOC[C@H](O)CO)c(F)c2F)C(=O)C(C(=O)Nc2ccc(C(F)(F)F)cc2-c2cc(C(F)(F)F)ncn2)=C(O)C12CCCC2 [Example 393]
7.8 µM	CN1N(Cc2ccc(OCCCCOCCCO)c(F)c2F)C(=O)C(C(=O)Nc2ccc(C(F)(F)F)cc2-c2cc(C(F)(F)F)ncn2)=C(O)C12CCCC2 [Example 399]
6.7 µM	CN1N(Cc2ccc(OCCCCCOC[C@H](O)CO)c(F)c2F)C(=O)C(C(=O)Nc2ccc(C(F)(F)F)cc2-c2cc(C(F)(F)F)ncn2)=C(O)C12CCCC2 [Example 394]
6.3 µM	CN1N(Cc2ccc(OC3COC3)c(F)c2F)C(=O)C(C(=O)Nc2ccc(C(F)(F)F)cc2-c2cc(C(F)(F)F)ncn2)=C(O)C12CCC2 [Example 403, 6-(2,3-Difluoro-4-(oxetan-3-yloxy)benzyl)-9-hydroxy-5-methyl-7-oxo-N-(4-(trifluoromethyl)-2-(6-(trifluoromethyl)pyrimidin-4-yl)phenyl)-5,6-diazaspiro[3.5]non-8-ene-8-carboxamide]
